These results are taken from patent US12637473B2, “MDM2 protein degraders” (THE REGENTS OF THE UNIVERSITY OF MICHIGAN, priority 2016, dated 2026).

The subject of the test is RS4; 11 cell line. The experiment in a line: CellTiter-Glo Luminescent Cell Viability Assay, cell growth inhibition. It is filed as cell-based. As to conditions: Homo sapiens, 96 h, 4 days. How it is done:
Cell growth inhibitory activity of representative MDM2 protein degraders was determined using CellTiter-Glo® Luminescent Cell Viability Assay. Cells were seeded in 384-well white opaque cell culture plates at a density of 2,000 cells/well with serially diluted compounds and incubated at 37° C. in an atmosphere of 95% air and 5% CO2 for 4 days. Cell viability was determined using the CellTiter-Glo® Luminescent Cell Viability Assay Kit (Promega, Madison, WI) according to the manufacture's instruction. Briefly, a volume of CellTiter-Glo® Reagent equal to the volume of cell culture medium was added to each well, and then the plates were incubated at room temperature for 10-20 minutes. The luminescent signal was measured using a Tecan Infinite M1000 multimode microplate reader (Tecan, Morrisville, NC). The half maximal inhibitory concentration (IC50) was calculated using the GraphPad Prism 5 software (GraphPad Software, La Jolla, CA). Cpd. […] The structure of Cpd.
(Cellular ATP, detected with luciferase, serves as a proxy for viable cell number.)
As to `O=C1CCC(N2Cc3c(NC(=O)CCOCCOCCNC(=O)c4ccc(NC(=O)[C@@H]5NC6(CCCCC6)[C@@]6(C(=O)Nc7cc(Cl)ccc76)[C@H]5c5cccc(Cl)c5F)cc4)cccc3C2=O)C(=O)N1` (stereo partly drawn) [Cpd. No. 29, (3′R,4'S,5′R)-6″-chloro-4′-(3-chloro-2-fluorophenyl)-N-(4-((2-(2-(3-((2-(2,6-dioxopiperidin-3-yl)-1-oxoisoindolin-4-yl)amino)-3-oxopropoxy)ethoxy)ethyl)carbamoyl)phenyl)-2″-oxodispiro[cyclohexane-1,2′-pyrrolidine-3′,3″-indoline]-5′-carboxamide], half-maximal inhibition (IC50) was put at 15 nM. Take `O=C1CCC(N2Cc3c(NC(=O)CCOCCOCCOCCNC(=O)c4ccc(NC(=O)[C@@H]5NC6(CCCCC6)[C@@]6(C(=O)Nc7cc(Cl)ccc76)[C@H]5c5cccc(Cl)c5F)cc4)cccc3C2=O)C(=O)N1` (stereo partly drawn) [Cpd. No. 30, (3′R,4'S,5′R)-6″-chloro-4′-(3-chloro-2-fluorophenyl)-N-(4-((2-(2-(2-(3-((2-(2,6-dioxopiperidin-3-yl)-1-oxoisoindolin-4-yl)amino)-3-oxopropoxy)ethoxy)ethoxy)ethyl)carbamoyl)phenyl)-2″-oxodispiro[cyclohexane-1,2′-pyrrolidine-3′,3″-indoline]-5′-carboxamide]: the concentration for half-maximal inhibition (IC50) (commonly the concentration that inhibits the measured activity by half) turned out to be 13 nM. The same measure for `O=C1CCC(N2Cc3c(CCCCCNC(=O)c4ccc(NC(=O)[C@@H]5NC6(CCCCC6)[C@@]6(C(=O)Nc7cc(Cl)ccc76)[C@H]5c5cccc(Cl)c5F)cc4)cccc3C2=O)C(=O)N1` (stereo partly drawn) [Cpd. No. 31, (3′R,4'S,5′R)-6″-chloro-4′-(3-chloro-2-fluorophenyl)-N-(4-((5-(2-(2,6-dioxopiperidin-3-yl)-1-oxoisoindolin-4-yl)pentyl)carbamoyl)phenyl)-2″-oxodispiro[cyclohexane-1,2′-pyrrolidine-3′,3″-indoline]-5′-carboxamide]: 1.8 nM; for `O=C1CCC(N2C(=O)c3cccc(CCCCCNC(=O)c4ccc(NC(=O)[C@@H]5NC6(CCCCC6)[C@@]6(C(=O)Nc7cc(Cl)ccc76)[C@H]5c5cccc(Cl)c5F)cc4)c3C2=O)C(=O)N1` (stereo partly drawn) [Cpd. No. 32, (3′R,4'S,5′R)-6″-chloro-4′-(3-chloro-2-fluorophenyl)-N-(4-((5-(2-(2,6-dioxopiperidin-3-yl)-1,3-dioxoisoindolin-4-yl)pentyl)carbamoyl)phenyl)-2″-oxodispiro[cyclohexane-1,2′-pyrrolidine-3′,3″-indoline]-5′-carboxamide]: 23 nM; for `O=C1CCC(N2Cc3c(CCCOCCNC(=O)c4ccc(NC(=O)[C@@H]5NC6(CCCCC6)[C@@]6(C(=O)Nc7cc(Cl)ccc76)[C@H]5c5cccc(Cl)c5F)cc4)cccc3C2=O)C(=O)N1` (stereo partly drawn) [Cpd. No. 33, (3′R,4'S,5′R)-6″-chloro-4′-(3-chloro-2-fluorophenyl)-N-(4-((2-(3-(2-(2,6-dioxopiperidin-3-yl)-1-oxoisoindolin-4-yl)propoxy)ethyl)carbamoyl)phenyl)-2″-oxodispiro[cyclohexane-1,2′-pyrrolidine-3′,3″-indoline]-5′-carboxamide]: 2.9 nM. On to `O=C1CCC(N2C(=O)c3cccc(CCCOCCNC(=O)c4ccc(NC(=O)[C@@H]5NC6(CCCCC6)[C@@]6(C(=O)Nc7cc(Cl)ccc76)[C@H]5c5cccc(Cl)c5F)cc4)c3C2=O)C(=O)N1` (stereo partly drawn) [Cpd. No. 34, (3′R,4'S,5′R)-6″-chloro-4′-(3-chloro-2-fluorophenyl)-N-(4-((2-(3-(2-(2,6-dioxopiperidin-3-yl)-1,3-dioxoisoindolin-4-yl)propoxy)ethyl)carbamoyl)phenyl)-2″-oxodispiro[cyclohexane-1,2′-pyrrolidine-3′,3″-indoline]-5′-carboxamide], for which it took 17.8 nM to reach half-maximal inhibition (IC50). The molecule `O=C1CCC(N2Cc3c(CCCOCCOCCNC(=O)c4ccc(NC(=O)[C@@H]5NC6(CCCCC6)[C@@]6(C(=O)Nc7cc(Cl)ccc76)[C@H]5c5cccc(Cl)c5F)cc4)cccc3C2=O)C(=O)N1` (stereo partly drawn) [Cpd. No. 35, (3′R,4'S,5′R)-6″-chloro-4′-(3-chloro-2-fluorophenyl)-N-(4-((2-(2-(3-(2-(2,6-dioxopiperidin-3-yl)-1-oxoisoindolin-4-yl)propoxy)ethoxy)ethyl)carbamoyl)phenyl)-2″-oxodispiro[cyclohexane-1,2′-pyrrolidine-3′,3″-indoline]-5′-carboxamide] registered an IC50 of 5.7 nM. The same measure for `O=C1CCC(N2C(=O)c3cccc(CCCOCCOCCNC(=O)c4ccc(NC(=O)[C@@H]5NC6(CCCCC6)[C@@]6(C(=O)Nc7cc(Cl)ccc76)[C@H]5c5cccc(Cl)c5F)cc4)c3C2=O)C(=O)N1` (stereo partly drawn) [Cpd. No. 36, (3′R,4'S,5′R)-6″-chloro-4′-(3-chloro-2-fluorophenyl)-N-(4-((2-(2-(3-(2-(2,6-dioxopiperidin-3-yl)-1,3-dioxoisoindolin-4-yl)propoxy)ethoxy)ethyl)carbamoyl)phenyl)-2″-oxodispiro[cyclohexane-1,2′-pyrrolidine-3′,3″-indoline]-5′-carboxamide]: 37.4 nM; for `O=C1CCC(N2Cc3c(CCCOCCOCCOCCNC(=O)c4ccc(NC(=O)[C@@H]5NC6(CCCCC6)[C@@]6(C(=O)Nc7cc(Cl)ccc76)[C@H]5c5cccc(Cl)c5F)cc4)cccc3C2=O)C(=O)N1` (stereo partly drawn) [Cpd. No. 37, (3′R,4'S,5′R)-6″-chloro-4′-(3-chloro-2-fluorophenyl)-N-(4-((2-(2-(2-(3-(2-(2,6-dioxopiperidin-3-yl)-1-oxoisoindolin-4-yl)propoxy)ethoxy)ethoxy)ethyl)carbamoyl)phenyl)-2″-oxodispiro[cyclohexane-1,2′-pyrrolidine-3′,3″-indoline]-5′-carboxamide]: 3.8 nM; for `O=C1CCC(N2C(=O)c3cccc(CCCOCCOCCOCCNC(=O)c4ccc(NC(=O)[C@@H]5NC6(CCCCC6)[C@@]6(C(=O)Nc7cc(Cl)ccc76)[C@H]5c5cccc(Cl)c5F)cc4)c3C2=O)C(=O)N1` (stereo partly drawn) [Cpd. No. 38, (3′R,4'S,5′R)-6″-chloro-4′-(3-chloro-2-fluorophenyl)-N-(4-((2-(2-(2-(3-(2-(2,6-dioxopiperidin-3-yl)-1,3-dioxoisoindolin-4-yl)propoxy)ethoxy)ethoxy)ethyl)carbamoyl)phenyl)-2″-oxodispiro[cyclohexane-1,2′-pyrrolidine-3′,3″-indoline]-5′-carboxamide]: 46 nM. For `O=C1CCC(N2Cc3c(NCc4cn(CCCNC(=O)c5ccc(NC(=O)[C@@H]6NC7(CCCCC7)[C@@]7(C(=O)Nc8cc(Cl)ccc87)[C@H]6c6cccc(Cl)c6F)cc5)cn4)cccc3C2=O)C(=O)N1` (stereo partly drawn) [Cpd. No. 39, (3′R,4'S,5′R)-6″-chloro-4′-(3-chloro-2-fluorophenyl)-N-(4-((3-(4-(((2-(2,6-dioxopiperidin-3-yl)-1-oxoisoindolin-4-yl)amino)methyl)-1H-imidazol-1-yl)propyl)carbamoyl)phenyl)-2″-oxodispiro[cyclohexane-1,2′-pyrrolidine-3′,3″-indoline]-5′-carboxamide], 1.5 nM corresponded to half-maximal inhibition (IC50). For `CCN1[C@@H](C(=O)NC23CCC(C(=O)NCCOCCOCCNC(=O)COc4cccc5c4C(=O)N(C4CCC(=O)NC4=O)C5=O)(CC2)CC3)[C@H](c2cccc(Cl)c2F)[C@]2(C(=O)Nc3cc(Cl)ccc32)C12CCCCC2` (stereo partly drawn) [Cpd. No. 45, (3′R,4'S,5′R)-6″-chloro-4′-(3-chloro-2-fluorophenyl)-N-(4-((2-(2-(2-(2-((2-(2,6-dioxopiperidin-3-yl)-1,3-dioxoisoindolin-4-yl)oxy)acetamido)ethoxy)ethoxy)ethyl)carbamoyl)bicyclo[2.2.2]octan-1-yl)-1′-ethyl-2″-oxodispiro[cyclohexane-1,2′-pyrrolidine-3′,3″-indoline]-5′-carboxamide], the IC50 was determined as 35 nM. The same measure for `CC1(C)CCC2(CC1)N[C@@H](C(=O)Nc1ccc(C(=O)NCCOCCOCCNc3cccc4c3C(=O)N(C3CCC(=O)NC3=O)C4=O)cc1)[C@H](c1cccc(Cl)c1F)[C@]21C(=O)Nc2cc(Cl)ccc21` (stereo partly drawn) [Cpd. No. 52, (3′R,4'S,5′R)-6″-chloro-4′-(3-chloro-2-fluorophenyl)-N-(4-((2-(2-(2-((2-(2,6-dioxopiperidin-3-yl)-1,3-dioxoisoindolin-4-yl)amino)ethoxy)ethoxy)ethyl)carbamoyl)phenyl)-4,4-dimethyl-2″-oxodispiro[cyclohexane-1,2′-pyrrolidine-3′,3″-indoline]-5′-carboxamide]: 1.5 nM; for `CC1(C)CCC2(CC1)N[C@@H](C(=O)Nc1ccc(C(=O)NCCCOCCOCCOCCCNc3cccc4c3C(=O)N(C3CCC(=O)NC3=O)C4=O)cc1)[C@H](c1cccc(Cl)c1F)[C@]21C(=O)Nc2cc(Cl)ccc21` (stereo partly drawn) [Cpd. No. 53, (3′R,4'S,5′R)-6″-chloro-4′-(3-chloro-2-fluorophenyl)-N-(4-((3-(2-(2-(3-((2-(2,6-dioxopiperidin-3-yl)-1,3-dioxoisoindolin-4-yl)amino)propoxy)ethoxy)ethoxy)propyl)carbamoyl)phenyl)-4,4-dimethyl-2″-oxodispiro[cyclohexane-1,2′-pyrrolidine-3′,3″-indoline]-5′-carboxamide]: 5.2 nM. `COc1cc(C(=O)NCCOCCOCCNc2cccc3c2C(=O)N(C2CCC(=O)NC2=O)C3=O)ccc1NC(=O)[C@@H]1N[C@@H](CC(C)(C)C)[C@](C#N)(c2ccc(Cl)cc2F)[C@H]1c1cccc(Cl)c1F` (stereo partly drawn) [Cpd. No. 57, (2R,3S,4R,5S)-3-(3-chloro-2-fluorophenyl)-4-(4-chloro-2-fluorophenyl)-4-cyano-N-(4-((2-(2-(2-((2-(2,6-dioxopiperidin-3-yl)-1,3-dioxoisoindolin-4-yl)amino)ethoxy)ethoxy)ethyl)carbamoyl)-2-methoxyphenyl)-5-neopentylpyrrolidine-2-carboxamide] showed an IC50 of 13 nM.
